Columns and labels:
Assay type in all cases: biochemical
[1] = molecular target: T1, BAM3 (Arabidopsis thaliana, UniProt O23553); assay: GC-MS maltose assay, Lineweaver-Burk and non-linear regression; conditions: substrate maltohexaose 2.5-25 mM; mixed inhibition; 50 mM sodium acetate, 5 mM DTT, 5 mM EDTA, pH 6.0, 25°C
T1 sequence (O23553 50-548): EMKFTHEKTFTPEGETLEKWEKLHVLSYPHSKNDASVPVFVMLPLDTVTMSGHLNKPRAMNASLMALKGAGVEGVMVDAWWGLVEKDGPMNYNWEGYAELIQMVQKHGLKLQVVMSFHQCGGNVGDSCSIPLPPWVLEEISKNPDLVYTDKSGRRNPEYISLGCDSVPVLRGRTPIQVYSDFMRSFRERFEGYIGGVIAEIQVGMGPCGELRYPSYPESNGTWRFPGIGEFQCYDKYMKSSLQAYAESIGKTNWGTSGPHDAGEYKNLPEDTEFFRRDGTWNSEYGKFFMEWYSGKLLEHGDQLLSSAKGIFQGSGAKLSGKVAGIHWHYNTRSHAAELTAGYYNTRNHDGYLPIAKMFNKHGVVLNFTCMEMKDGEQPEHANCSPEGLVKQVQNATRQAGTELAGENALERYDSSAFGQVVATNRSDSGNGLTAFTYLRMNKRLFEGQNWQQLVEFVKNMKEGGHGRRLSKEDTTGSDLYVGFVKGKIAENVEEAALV

[2] = molecular target: T2, BAM1 (Arabidopsis thaliana, UniProt Q9LIR6); assay: Betamyl colorimetric assay, p-nitrophenol release; conditions: 2.5 mM substrate, 0.1 M maleic acid pH 6.2, 40°C; enzyme pre-treated with 20 mM DTT
T2 sequence (Q9LIR6 42-575): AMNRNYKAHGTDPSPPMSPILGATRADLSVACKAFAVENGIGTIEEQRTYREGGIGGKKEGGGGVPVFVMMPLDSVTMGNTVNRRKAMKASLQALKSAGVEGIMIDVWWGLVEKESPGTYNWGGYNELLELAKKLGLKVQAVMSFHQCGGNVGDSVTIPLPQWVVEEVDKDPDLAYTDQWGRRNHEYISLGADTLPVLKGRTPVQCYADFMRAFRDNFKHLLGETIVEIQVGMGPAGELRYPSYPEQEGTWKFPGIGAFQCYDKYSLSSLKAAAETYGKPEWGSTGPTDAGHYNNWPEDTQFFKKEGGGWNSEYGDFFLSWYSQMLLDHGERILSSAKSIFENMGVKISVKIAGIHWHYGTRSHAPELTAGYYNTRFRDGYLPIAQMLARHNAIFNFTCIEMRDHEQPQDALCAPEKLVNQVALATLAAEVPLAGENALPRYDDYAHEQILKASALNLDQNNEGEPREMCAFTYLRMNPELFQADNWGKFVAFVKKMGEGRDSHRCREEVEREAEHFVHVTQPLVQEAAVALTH

[3] = molecular target: T3, barley BAM (Hordeum vulgare, UniProt P16098); assay: Betamyl colorimetric assay, p-nitrophenol release; conditions: 2.5 mM substrate, 0.1 M maleic acid pH 6.2, 40°C; enzyme pre-treated with 20 mM DTT
T3 construct: gene BMY1; commercial barley seed beta-amylase (Sigma A7130), native preparation, lyophilised powder
T3 sequence (P16098 whole entry): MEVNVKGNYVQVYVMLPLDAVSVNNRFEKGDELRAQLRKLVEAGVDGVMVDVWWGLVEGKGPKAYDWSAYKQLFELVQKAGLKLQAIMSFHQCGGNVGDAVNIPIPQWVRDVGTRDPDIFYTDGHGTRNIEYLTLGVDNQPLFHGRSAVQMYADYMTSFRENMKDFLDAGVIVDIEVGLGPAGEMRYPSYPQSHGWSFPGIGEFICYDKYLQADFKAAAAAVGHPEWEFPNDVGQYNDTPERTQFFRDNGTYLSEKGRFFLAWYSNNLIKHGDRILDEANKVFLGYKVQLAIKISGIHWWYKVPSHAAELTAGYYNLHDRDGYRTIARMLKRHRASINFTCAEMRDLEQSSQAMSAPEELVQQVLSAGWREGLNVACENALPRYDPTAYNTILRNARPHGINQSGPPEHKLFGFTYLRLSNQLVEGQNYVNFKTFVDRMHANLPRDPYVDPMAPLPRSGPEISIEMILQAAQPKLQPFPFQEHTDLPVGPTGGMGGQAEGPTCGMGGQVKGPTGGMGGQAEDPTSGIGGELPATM

Ki [1]	Structure (SMILES)	Betamyl colorimetric assay, p-nitrophenol release [2]	Betamyl colorimetric assay, p-nitrophenol release [3]
7.5 mM	OC[C@H]1O[C@H](O[C@H]2[C@H](O)[C@@H](O)[C@@H](O[C@H]3[C@H](O)[C@@H](O)C(O)O[C@@H]3CO)O[C@@H]2CO)[C@H](O)[C@@H](O)[C@@H]1O (stereo partly drawn) [G3, maltotriose]		
	O=[N+]([O-])c1ccc(O[C@H]2O[C@H](CO)[C@@H](O[C@H]3O[C@H](CO)[C@@H](O[C@H]4O[C@H](CO)[C@@H](O[C@H]5O[C@H](CO)[C@@H](O[C@H]6O[C@H](CO)[C@@H](O)[C@H](O)[C@H]6O)[C@H](O)[C@H]5O)[C@H](O)[C@H]4O)[C@H](O)[C@H]3O)[C@H](O)[C@H]2O)cc1 [PNPG5, p-nitrophenyl maltopentaoside]	we assayed recombinant BAM1 and commercially-purchased barley seed β-amylase, under the same conditions	we assayed recombinant BAM1 and commercially-purchased barley seed β-amylase, under the same conditions

— PMC5321445, “Inhibition of Arabidopsis chloroplast β-amylase BAM3 by maltotriose suggests a mechanism for the control of transitory leaf starch mobilisation” (PLoS ONE, 2017)
